Measurements from patent US9562033B2, “Inhibitors of viral replication, their process of preparation and their therapeutical uses” (LABORATOIRE BIODIM, priority 2012, dated 2017).

Tested on: NL4-3 strain of HIV-1
Assay: HIV-1 replication inhibition: cyto-protection of MT4 cells infected with NL4-3 virus (CellTiter-Glo viability assay)
Assay type: cell-based
Settings: Human immunodeficiency virus 1, NL43, 120 h, concentration leading to 50% of cyto-protection, 5 days incubation
Method: The antiviral activity, particularly against HIV, of compounds according to the invention is evaluated by the protocol described below.
Preparation of Virus Stock of the NL4-3 Strain of HIV-1
The virus was prepared as described in Lopez et al (Lopez et al, Proc Natl Acad Sci USA., 2006, 103(40):14947-52, by transfecting 2×10^6 293 T cells (CRL-1573, ATCC) with following modifications: 6 μg of NL4-3 proviral DNA molecular clone were mixed with Fugene 6 transfection reagent from Roche, and used according to manufacturer's instructions. Forty eight hours later, transfected cell supernatants were harvested, filtered through 0.45-μm-pore-size filters, quantified for HIV-1 p24 antigen by using a Innotest HIV antigen mAb assay (Ingen) according to manufacturer's instructions, and used in infection experiments.
Preparation of Compounds:
Serial dilutions of compounds to be tested were prepared in complete RPMI medium from 10 mM DMSO stock solutions, and distributed in a volume of 20 µl in 96 well Falcon 353072 Microtest™ tissue culture plate, in order to get 0.5% DMSO final concentration in each well, after the addition of infected cells. Control wells contained also 0.5% DMSO final concentration but no compound.
MT4 cells (from the NIH AIDS Research and Reference Reagent Program) in RPMI complete medium were counted (10×10^6 cells per well in Falcon 353047 Multiwell™ 24 well) and infected for 2 hours at 37°, at a multiplicity of infection (moi) of 0.0001-0.00001. Cells were then centrifuged 3 min at 3000 rpm, and washed two times in 1 ml PBS to remove viruses that have not entered in cells. Infected cells were resuspended in complete RPMI at 1.25×10^6 cells/ml, and 80 µl of infected cells were distributed in each well containing compounds to be tested or control wells. The plates were then incubated at 37° for 5 days.
Assay Used to Measure the Inhibition of HIV Replication by the Compounds
(according to Gregg S. Jones et al., Antimicrobial Agents and Chemotherapy, 2009, 53 (3): 1194-1203).
After 5 days of incubation, […] of CellTiter-Glo reagent (Promega Biosciences, Inc., Madison Wis., USA) were added to each well. Cell lysis was carried out at room temperature during 10 min, 150 μl of lysates were transferred in Packard Optiplate 96 well, and luminescence was read on a Fluoroskan (Thermo Scientific).

Row | SMILES | EC50 [nM]
1 | Cc1sc(-c2ccc(C(N)=O)cc2)c(C2=CCC(C)(C)CC2)c1C(OC(C)(C)C)C(=O)O (stereo not drawn) [Example 27, 2-(tert-butoxy)-2-[5-(4-carbamoylphenyl)-4-(4,4-dimethylcyclohex-1-en-1-yl)-2-methylthiophen-3-yl]acetic acid] | 90
2 | Cc1sc(-c2ccncc2)c(C2=CCC(F)(F)CC2)c1C(OC(C)(C)C)C(=O)O (stereo not drawn) [Example 28, 2-(tert-butoxy)-2-[2-methyl-4-(4,4-difluorocyclohex-1-en-1-yl)-5-(pyridin-4-yl)thiophen-3-yl]acetic acid] | 750
3 | CNC(=O)c1ccc(-c2sc(C)c(C(OC(C)(C)C)C(=O)O)c2C2=CCC(C)(C)CC2)cc1 (stereo not drawn) [Example 29, 2-(tert-butoxy)-2-[4-(4,4-dimethylcyclohex-1-en-1-yl)-2-methyl-5-(N-methyl-4-aminocarbonylphenyl)thiophen-3-yl]acetic acid] | 90
4 | Cc1sc(-c2ccc(=O)n(C)c2)c(C2=CCC(C)(C)CC2)c1C(OC(C)(C)C)C(=O)O (stereo not drawn) [Example 30] | 70
5 | Cc1sc(-c2cccc(C(N)=O)c2)c(C2=CCC(C)(C)CC2)c1C(OC(C)(C)C)C(=O)O (stereo not drawn) [Example 31, 2-(tert-butoxy)-2-[4-(4,4-dimethylcyclohex-1-en-1-yl)-2-methyl-5-(aminocarbonylphen-3-yl)thiophen-3-yl]acetic acid] | 40
6 | Cc1sc(-c2ccc(S(N)(=O)=O)cc2)c(C2=CCC(C)(C)CC2)c1C(OC(C)(C)C)C(=O)O (stereo not drawn) [Example 32, 2-(tert-butoxy)-2-[4-(4,4-dimethylcyclohex-1-en-1-yl)-2-methyl-5-(benzenesulfonamide-4-yl)thiophen-3-yl]acetic acid] | 430
7 | CC(=O)Nc1ccc(-c2sc(C)c(C(OC(C)(C)C)C(=O)O)c2C2=CCC(C)(C)CC2)cc1 (stereo not drawn) [Example 33, 2-(tert-butoxy)-2-[4-(4,4-dimethylcyclohex-1-en-1-yl)-2-methyl-5-(acetamidophen-4-yl)thiophen-3-yl]acetic acid] | 230
8 | Cc1sc(-c2ccc(=O)n(Cc3ccccc3)c2)c(C2=CCC(C)(C)CC2)c1C(OC(C)(C)C)C(=O)O (stereo not drawn) [Example 34] | 750
9 | CCCn1cc(-c2sc(C)c(C(OC(C)(C)C)C(=O)O)c2C2=CCC(C)(C)CC2)ccc1=O (stereo not drawn) [Example 35] | 340
10 | CCCNC(=O)c1ccc(-c2sc(C)c(C(OC(C)(C)C)C(=O)O)c2C2=CCC(C)(C)CC2)cc1 (stereo not drawn) [Example 36, 2-(tert-butoxy)-2-[4-(4,4-dimethylcyclohex-1-en-1-yl)-2-methyl-5-[4-(propylcarbamoyl)phenyl]thiophen-3-yl]acetic acid] | 100
11 | Cc1sc(-c2ccc(=O)n(CC3CC3)c2)c(C2=CCC(C)(C)CC2)c1C(OC(C)(C)C)C(=O)O (stereo not drawn) [Example 37] | 320
12 | CC(C)(C)OC(C(=O)O)c1c(CO)sc(-c2ccncc2)c1-c1ccc2c(c1)CCCO2 (stereo not drawn) [Example 38, 2-(tert-butoxy)-2-[4-(3,4-dihydro-2H-1-benzopyran-6-yl)-2-(hydroxymethyl)-5-(pyridin-4-yl)thiophen-3-yl]acetic acid] | 2300
13 | Cc1sc(-c2ccncc2)c(-c2cc(F)c3c(c2C)CCCO3)c1C(OC(C)(C)C)C(=O)O (stereo not drawn) [Example 39, 2-(tert-butoxy)-2-[4-(8-fluoro-5-methyl-3,4-dihydro-2H-1-benzopyran-6-yl)-2-methyl-5-(pyridin-4-yl)thiophen-3-yl]acetic acid] | 730
14 | Cc1sc(-c2ccncc2)c(-c2cc(F)c3c(c2)CCCO3)c1C(OC(C)(C)C)C(=O)O (stereo not drawn) [Example 40, 2-(tert-butoxy)-2-[4-(8-fluoro-3,4-dihydro-2H-1-benzopyran-6-yl)-2-methyl-5-(pyridin-4-yl)thiophen-3-yl]acetic acid] | 360
15 | CNC(=O)c1cccc(-c2sc(C)c(C(OC(C)(C)C)C(=O)O)c2C2=CCC(C)(C)CC2)c1 (stereo not drawn) [Example 41, 2-(tert-butoxy)-2-[4-(4,4-dimethylcyclohex-1-en-1-yl)-2-methyl-5-(methylaminocarbonylphen-3-yl)thiophen-3-yl]acetic acid] | 50
16 | CCCNC(=O)c1cccc(-c2sc(C)c(C(OC(C)(C)C)C(=O)O)c2C2=CCC(C)(C)CC2)c1 (stereo not drawn) [Example 42, 2-(tert-butoxy)-2-[4-(4,4-dimethylcyclohex-1-en-1-yl)-2-methyl-5-[3-(propylcarbamoyl)phenyl]thiophen-3-yl]acetic acid] | 40
17 | Cc1sc(-c2ccccn2)c(C2=CCC(C)(C)CC2)c1C(OC(C)(C)C)C(=O)O (stereo not drawn) [Example 43, 2-(tert-butoxy)-2-[4-(4,4-dimethylcyclohex-1-en-1-yl)-2-methyl-5-(pyridin-2-yl)thiophen-3-yl]acetic acid] | 440
18 | Cc1sc(-c2ccccc2)c(C2=CCC(C)(C)CC2)c1C(OC(C)(C)C)C(=O)O (stereo not drawn) [Example 44, 2-(tert-butoxy)-2-[4-(4,4-dimethylcyclohex-1-en-1-yl)-2-methyl-5-phenylthiophen-3-yl]acetic acid] | 230
19 | Cc1sc(-c2nccs2)c(C2=CCC(C)(C)CC2)c1C(OC(C)(C)C)C(=O)O (stereo not drawn) [Example 45, 2-(tert-butoxy)-2-[4-(4,4-dimethylcyclohex-1-en-1-yl)-2-methyl-5-(1,3-thiazol-2-yl)thiophen-3-yl]acetic acid] | 440
20 | Cc1ccc(-c2sc(C)c(C(OC(C)(C)C)C(=O)O)c2C2=CCC(C)(C)CC2)nc1 (stereo not drawn) [Example 46, 2-(tert-butoxy)-2-[4-(4,4-dimethylcyclohex-1-en-1-yl)-2-methyl-5-(5-methylpyridin-2-yl)thiophen-3-yl]acetic acid] | 450
21 | Cc1cccnc1-c1sc(C)c(C(OC(C)(C)C)C(=O)O)c1C1=CCC(C)(C)CC1 (stereo not drawn) [Example 47, 2-(tert-butoxy)-2-[4-(4,4-dimethylcyclohex-1-en-1-yl)-2-methyl-5-(3-methylpyridin-2-yl)thiophen-3-yl]acetic acid] | 510
22 | Cc1sc(-c2ccncc2)c(C2=CCC(CF)(CF)CC2)c1C(OC(C)(C)C)C(=O)O (stereo not drawn) [Example 48, [4-(4,4-bis-fluoromethyl-cyclohex-1-enyl)-2-methyl-5-pyridin-4-yl-thiophen-3-yl]-tert-butoxy-acetic acid] | 130
23 | Cc1sc(-c2ncccn2)c(C2=CCC(C)(C)CC2)c1C(OC(C)(C)C)C(=O)O (stereo not drawn) [Example 49, 2-(tert-butoxy)-2-{2-methyl-4-[4,4-dimethylcyclohex-1-en-1-yl]-5-(Pyrimidin-2-yl)thiophen-3-yl}acetic acid] | 990
24 | Cc1sc(-n2cccn2)c(C2=CCC(C)(C)CC2)c1C(OC(C)(C)C)C(=O)O (stereo not drawn) [Example 50, 2-(tert-butoxy)-2-[4-(4,4-dimethylcyclohex-1-en-1-yl)-2-methyl-5-(1H-pyrazol-1-yl)thiophen-3-yl]acetic acid] | 770
25 | CCCc1cccc(-c2sc(C)c(C(OC(C)(C)C)C(=O)O)c2C2=CCC(C)(C)CC2)n1 (stereo not drawn) [Example 51, 2-(tert-butoxy)-2-{2-methyl-4-[4,4-dimethylcyclohex-1-en-1-yl]-5-(6-(n-propyl)pyridin-2-yl)thiophen-3-yl}acetic acid] | 270
26 | CCCc1ccc(-c2sc(C)c(C(OC(C)(C)C)C(=O)O)c2C2=CCC(C)(C)CC2)nc1 (stereo not drawn) [Example 52, 2-(tert-butoxy)-2-{2-methyl-4-[4,4-dimethylcyclohex-1-en-1-yl]-5-(5-(n-propyl)pyridin-2-yl)thiophen-3-yl}acetic acid] | 930
27 | Cc1sc(-c2ccncc2)c(C2=CCC(C)(CF)CC2)c1C(OC(C)(C)C)C(=O)O (stereo not drawn) [Example 53, [4-(4-fluoromethyl-4-methylcyclohex-1-enyl)-2-methyl-5-pyridin-4-yl-thiophen-3-yl]-tert-butoxy-acetic acid] | 70
28 | Cc1sc(-c2cscn2)c(C2=CCC(C)(C)CC2)c1C(OC(C)(C)C)C(=O)O (stereo not drawn) [Example 54, 2-(tert-butoxy)-2-{2-methyl-4-[4,4-dimethylcyclohex-1-en-1-yl]-5-(thiazol-4-yl)thiophen-3-yl}acetic acid] | 470
29 | Cc1sc(-c2ccccc2C(N)=O)c(C2=CCC(C)(C)CC2)c1C(OC(C)(C)C)C(=O)O (stereo not drawn) [Example 55, 2-(tert-butoxy)-2-{2-methyl-4-[4,4-dimethylcyclohex-1-en-1-yl]-5-(carboxamidephen-2-yl)thiophen-3-yl}acetic acid] | 90
30 | CNC(=O)c1ccccc1-c1sc(C)c(C(OC(C)(C)C)C(=O)O)c1C1=CCC(C)(C)CC1 (stereo not drawn) [Example 56, 2-(tert-butoxy)-2-{2-methyl-4-[4,4-dimethylcyclohex-1-en-1-yl]-5-(N-methylbenzamide-2-yl)thiophen-3-yl}acetic acid] | 120
